Reference: US6451861B1, “Reduction of gastro-intestinal bacterial load” (priority 1999, dated 2002)

Tests used:
[1] = tested on: E. coli strains AW574 or AW405; experiment: Lysis of E. coli by terpenes (galactosidase activity, ONPG, 420 nm)
Text: Lysis of the cell membrane was monitored by the determination of galactosidase activity. […] This enzyme is inducible in the presence of isopropyl-1-thiogalactosidase (IPTG) and assayed colorimetricaly with substrate o-nitro-phenyl-B-D-galactoside (ONPG). ONPG is cleaved to release o-nitrophenol with peak absorvance at 420 nm. Since intact E. coli is impermeable to both ONPG and the enzyme, the cells have to be lysed prior to enzymatic assay. Therefore the ability of terpenes to lyse E. coli can be measured with this enzymatic assay and compared to known lysing agents. The procedure used was as follows: E. coli strains AW574 or AW405 were cultured overnight in 10 ml tryptone broth with 1 nM IPTG at 35° C. Cells were allowed to growth after an absorbance equal to 0.9 was reached. Cells were harvested, washed with phosphate buffer and resuspended to an absorbance equal to 0.5. One tenth of a ml of the bacteria culture was added to 0.9 ml of buffer, warmed to 30° C. and then 80 ul of terpenes (85% terpenes and 15% polysorbate-80), 80 ul water (background) or 40 ul chloroform plus 40 ul 1% SDS in water (positive control) were added. After the addition of the lysing agents the tubes were mixed for 10 seconds and 0.2 ml of ONPG (4 mg/ml water) was added, then incubated for 5 minutes. The enzyme activity was stopped with 0.5 ml of 1 M sodium carbonate. After being centrifuged for 3 minutes at 1,500×g, supernatant was transferred to cuvettes and read at 420 nm. The relative degree of lysis caused by terpenes was calculated as follows:
100×(OD terpenes−OD water)/(OD chloroform−OD water)

E. coli = conditions: cited from earlier work

Work on `CC(C)=CCC/C(C)=C/CO` [Geraniol] yielded a Relative lysis % ([1]; Geraniol 3.63 uM, relative to SDS + chloroform = 100%) of 2.4%, a Relative lysis % ([1]; Geraniol 363 uM, relative to SDS + chloroform = 100%) of 34% and a Relative lysis % ([1]; Geraniol 3,630 uM, relative to SDS + chloroform = 100%) of 98%. For the same compound, the Relative lysis % ([1]; Geraniol 36,300 uM, relative to SDS + chloroform = 100%) was 96%.
For `CC(C)=CCCC(C)=CC=O` [citral], the “citral concentration in media that reduced the concentration of E. coli” value (E. coli) is given as “more than 0.01%” and the “citral concentration with bactericidal effect” value (E. coli; in media) is given as 0.08%.
In the case of Polysorbate-80 [reference compound], the Relative lysis % ([1]; 80 ul Polysorbate-80 alone) was 3.2%.
